Reference: article PMC4596572, “Ligand Discovery for the Alanine-Serine-Cysteine Transporter (ASCT2, SLC1A5) from Homology Modeling and Virtual Screening” (PLoS Computational Biology, 2015)

What was measured:
[1] = test system: ASCT2 protein levels in C8161 cells; assay: Western blotting of ASCT2 protein levels; type: cell-based, human; conditions: 5 mM, 48 hours
Description: To ensure these inhibitory effects were not due to changes in ASCT2 protein levels, we examined ASCT2 protein levels by Western blotting 48 hours after incubation with chloroalanine (5 mM), AOC (5 mM) or γ-FBP (5 mM) (Fig 8J). […] For example, γ-FBP is an inhibitor that deprives the cancer cells from nutrients and the activator Chloroalanine can potentially be further developed as a cytotoxic ligand.
Cells (5 × 10^5 per well) were seeded in 24 well plates, allowed to adhere overnight, and then incubated in the presence of 5 mM chloroalanine, AOC or γ-FBP for 48 hours. Cells were detached using Tryple and lysed in lysis buffer (50 μL; 20 mM Tris-HCl, 150 mM NaCl, 1% Triton X-100, 0.5% Na deoxycholate, 0.1% SDS) with protease inhibitor Cocktail III (Bioprocessing Biochemical, California). Protein was measured using micro-BCA method (Pierce) and loaded onto a 4–12% gel (Life Technologies), electrophoresed, and transferred to PVDF membrane. The membrane was blocked with 2.5% (w/v) BSA in PBS-Tween20, and incubated with primary (ASCT2, Cell Signaling; GAPDH, Abcam) and secondary antibodies. Secondary HRP-labeled antibodies (Millipore) were detected using chemiluminescence reagents (Pierce) on a Kodak imager (Kodak).

[2] = test system: C8161 human melanoma cells; assay: Annexin V/propidium iodide apoptosis assay by flow cytometry; type: cell-based; conditions: 5 mM, 48 hours
Description: (§1) Glutamine is a conditionally essential amino acid required for cancer cell growth, being used as fuel source for the TCA cycle, and a carbon and nitrogen source for macromolecule production. We therefore examined cell viability in the presence of chloroalanine (5 mM), AOC (5 mM) and γ-FBP (5 mM) using an MTT assay in C8161 cells (Methods).
Cells (5 × 10^5 per well) were seeded in 24 well plates, allowed to adhere overnight, and then incubated in the presence of 5 mM chloroalanine, AOC or γ-FBP for 48 hours. Cells were detached using Tryple and resuspended in 300 μL of binding buffer (HEPES-buffered PBS supplemented with 2.5 mM calcium chloride) with Annexin V-APC (BD) and incubated for 15 min in the dark at room temperature. Propidium iodide solution (5 μg/mL) was added, and the cells were analyzed using the BD LSRFortessa and FlowJo software.

[3] = biological target: T1, ASCT2 mediated glutamine uptake in C8161 melanoma cells (Homo sapiens, UniProt Q15758); assay: [3H]-L-glutamine uptake assay in C8161 cells; type: cell-based; conditions: 15 min, 37°C, n = 3
T1 construct: endogenous in cells; host or cells: C8161 human melanoma cell line
T1 sequence (Q15758 1-541): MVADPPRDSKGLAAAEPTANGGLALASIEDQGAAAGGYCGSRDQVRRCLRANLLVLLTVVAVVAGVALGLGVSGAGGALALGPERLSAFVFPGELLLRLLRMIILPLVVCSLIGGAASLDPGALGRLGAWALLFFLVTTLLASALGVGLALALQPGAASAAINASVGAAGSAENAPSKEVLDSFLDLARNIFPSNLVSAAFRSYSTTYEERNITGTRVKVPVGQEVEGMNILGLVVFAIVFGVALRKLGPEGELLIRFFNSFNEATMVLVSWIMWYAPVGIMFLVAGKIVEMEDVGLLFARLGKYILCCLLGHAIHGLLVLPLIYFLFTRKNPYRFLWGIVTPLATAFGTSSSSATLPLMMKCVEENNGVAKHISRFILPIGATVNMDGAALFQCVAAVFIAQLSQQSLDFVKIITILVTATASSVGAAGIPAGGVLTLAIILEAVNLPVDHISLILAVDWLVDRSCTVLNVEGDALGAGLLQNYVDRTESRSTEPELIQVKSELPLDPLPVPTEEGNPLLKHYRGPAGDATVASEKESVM
Description: We have previously shown that ASCT2 mediates glutamine uptake in C8161 human melanoma cells, and that blocking ASCT2 activity inhibits cell growth and viability (Methods). […] In the presence these compounds, [^3H]-L-glutamine uptake was decreased in a dose-dependent manner in C8161 cells, in agreement with their elicitation of current as activators and potential substrates (Fig 8A–8C).
(§2) Human melanoma cell line C8161 culture was performed as previously described. Media used was DMEM/F12 medium (Life Technologies) containing 5% (v/v) fetal bovine serum (FBS), penicillin-streptomycin solution (Sigma-Aldrich). Cells were maintained at 37°C in a fully humidified atmosphere containing 5% CO2. Inhibitors (chloroalanine, AOC and γ-FBP) were resuspended in H2O, with control cells treated with the appropriate concentrations of vehicle alone.
C8161 cells (1 × 10^5/well) were incubated with [^3H]-L-glutamine (400 nM; PerkinElmer) in MEM media (Life Technologies) for 15 min at 37°C in the presence or absence of each inhibitor. Cells were collected and transferred to filter paper using a 96-well plate harvester (Wallac PerkinElmer), dried, exposed to scintillation fluid and counts measured using a liquid scintillation counter (PerkinElmer).

[4] = test system: C8161 human melanoma cells; assay: MTT cell viability assay; type: cell-based; conditions: 5 mM
Description: as §1, §2
MTT (3–(4,5–dimethylthiazol–2–yl)–2,5–diphenyl […] bromide; Millipore) cell viability assay was performed as previously described. Briefly, C8161 cells (1 × 10^4/well) were seeded in a flat-bottomed 96–well plate, incubated overnight in media, prior to culture with or without each inhibitor. MTT solution (10 μL) was added to each well for 4 h, prior to addition of 100 μL of isopropanol/HCl solution. Solution was mixed thoroughly and plates immediately read at 570 nm/630 nm in a PolarStar plate reader (BMG). Results were plotted as percentages of the absorbance observed in control wells.

Compound | ASCT2 protein levels [1] | Apoptosis (early Annexin V+PI-, late Annexin V+PI+) [2] | IC50 [3] | Cell viability (MTT) [4]
NC1(C(=O)O)COC1 | no change | neither AOC nor γ-FBP led to a significant increase | 10 to 15 mM | significantly inhibited cell viability
NC(CCl)C(=O)O (stereo not drawn) [Chloroalanine] | reduced the levels of ASCT2 protein | significantly increased apoptosis | 9.2 mM | significantly inhibited cell viability
O=C(O)C1CC(Cc2ccccc2F)CN1 (stereo not drawn) [γ-FBP] | no change | neither AOC nor γ-FBP led to a significant increase | 10 to 15 mM | significantly inhibited cell viability
